Measured values from patent publication US11833120B2, “Binding protein drug conjugates comprising anthracycline derivatives” (priority 2014, dated 2023).

What was measured:
[1] = tested on: L428, a Hodgkin's lymphoma cell line expressing low to moderate levels of CD30; experiment: In vitro cytotoxicity assay (CellTiter-Glo) on L428; assay type: cell-based, human; conditions: CD30 LO L428 cells, 4 days, up to 20 μg/ml
Method: For this, cells were plated on 96-well plates in 100 μl RPMI/10% FCS at a density of 10^4 cells per well and grown at 37° C. in a humidified incubator at 5% CO2 atmosphere. After one day incubation, 25 μl medium was carefully removed from each well and replaced by 25 μl of 3.5-fold serial dilutions of each ADC in growth medium, resulting in final ADC concentrations ranging from 20 μg/ml to 0.25 ng/ml. Each dilution was done in duplicate. After 4 additional days, plates were removed from the incubator and equilibrated to room temperature. After approximately 30 minutes, 100 μl CellTiter-Glo® Luminescent Solution (Promega, Cat. No G7570) was added to each well and, after shaking the plates at 450 rpm for 5 min followed by a 10 min incubation without shaking, luminescence was measured on a Tecan Infinity F200 with an integration time of 1 second per well.
Cells were incubated with serial dilutions of ADCs for 4 days, after which CellTiter-Glo® Luminescent Solution (Promega) was added and viable cells were quantified by measuring the luminescence on a Tecan Infinity F200.

[2] = tested on: breast cancer (MCF7) cell line; conditions: MCF7, WO2012/073217; cited from earlier work
[3] = tested on: ovarian (A2780) cancer cell line; conditions: A2780, WO2012/073217; cited from earlier work

Molecule	cell killing (in words) [1]	potency for in vitro cell killing [2]	potency for in vitro cell killing [3]
Adcetris	inefficient at killing		
COc1cccc2c1C(=O)c1c(O)c3c(c(O)c1C2=O)C[C@@](O)(C(=O)CO)C[C@@H]3O[C@H]1C[C@H]2[C@H](O[C@@H]3[C@@H](OC)OCCN32)[C@H](C)O1 [PNU-159682]		pico- to femtomolar range	pico- to femtomolar range
cAc10-PNU-EDA-Gly5	only at higher concentrations, similar to the control ADCs employed		
